# Ends that are not written are not given here.
# Biological target: T1, rat ASIC1a (Rattus norvegicus, UniProt P55926)
# T1 construct: expressed in transfected cells; host or cells: Xenopus laevis oocytes (injected)
# T1 sequence (P55926 1-526): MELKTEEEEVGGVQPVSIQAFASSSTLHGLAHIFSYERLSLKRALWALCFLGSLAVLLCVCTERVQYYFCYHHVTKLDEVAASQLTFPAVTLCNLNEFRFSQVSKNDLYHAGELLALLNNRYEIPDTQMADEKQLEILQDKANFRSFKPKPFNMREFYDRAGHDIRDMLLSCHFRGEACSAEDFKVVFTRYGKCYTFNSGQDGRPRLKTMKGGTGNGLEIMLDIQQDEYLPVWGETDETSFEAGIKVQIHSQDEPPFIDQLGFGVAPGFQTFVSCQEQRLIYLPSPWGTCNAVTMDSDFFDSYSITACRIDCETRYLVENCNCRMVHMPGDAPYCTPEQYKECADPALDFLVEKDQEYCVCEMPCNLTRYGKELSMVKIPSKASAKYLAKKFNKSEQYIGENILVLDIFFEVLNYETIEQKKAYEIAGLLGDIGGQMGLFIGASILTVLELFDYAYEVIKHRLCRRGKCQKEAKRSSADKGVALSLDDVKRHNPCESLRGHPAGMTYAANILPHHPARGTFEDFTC
# Experiment: ASIC1a steady-state desensitization (SSD) by rNS preconditioning
# Format: cell-based
# Details: preconditioning with 0.04 to 0.1 mM rNS, then 1 mM rNS stimulus; n = 4
# Method: Oocytes expressed rASIC1a, rASIC1b, rASIC2a, and rASIC3 homomeric channels were prepared as described. Injected oocytes were kept for two–three days at 19 °C and then for up to seven days at 15 °C in ND-96 medium supplemented with gentamycin (50 μg·mL^−1) and containing (in mM): 96 NaCl, 2 KCl, 1.8 CaCl2, 1 MgCl2, and 10 HEPES titrated to pH 7.4 with NaOH. Electrophysiological recordings were performed using the GeneClamp500 amplifier (Axon Instruments, Inverurie, UK) at a holding potential of -50 mV. The data were filtered at 20 Hz and digitized at 100 Hz using the L780 AD converter (L-Card, Moscow, Russia). Microelectrodes were filled with 3 M KCl. […]
# Figure 2 Effects of nocistatin on rat ASIC1a channels. […] Calculated parameters of EC50 for non-discriminated sites, or EC501 for “cooperative” sites and EC502 for single site, are shown as a result of experimental data mathematical processing. The peak current amplitude is normalized to the maximum amplitude (Imax) calculated for each oocyte by individual fitting. […] Two independent dose-response curves were measured for the 1st (blue line) and the 2nd (green line) peak components of the current. Calculated parameters of IC50 are shown as a result of experimental data mathematical processing by F3(x) logistic equation (see Materials and Methods for detailed description). […]
sequence,measurement,value
MPRVRSVVQARDAEPEADAEPVADEADEVEQKQLQ [rNS],Steady-state desensitization (SSD),does not -induce SSD

# From article PMC6769468, “Endogenous Neuropeptide Nocistatin Is a Direct Agonist of Acid-Sensing Ion Channels (ASIC1, ASIC2 and ASIC3)” (Biomolecules, 2019)
